One test deals with TNFα (Homo sapiens, UniProt P01375). Put plainly: HEK-Blue hTNFα reporter assay. It is filed as cell-based. On the set-up: purchased R&D biosystem (R&D Systems) 210-TA-020/CF. The note with it: HEK-Blue hTNFα reporter cells, SEAP readout; read-out: IC50 Range. In outline:
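IC50 from 4-parameter regression of % inhibition, with OD620 of secreted SEAP (QUANTI-Blue, 1 h) referenced to cells with and without hTNFα. HEK-Blue TNFα reporter cells were exposed 24 h to compound premixed 1 h with hTNFα ([…]).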
For orientation: In a reporter assay the amount or activity of a reporter protein is the signal.
Chain of TNFα (P01375 77-233 limits assumed): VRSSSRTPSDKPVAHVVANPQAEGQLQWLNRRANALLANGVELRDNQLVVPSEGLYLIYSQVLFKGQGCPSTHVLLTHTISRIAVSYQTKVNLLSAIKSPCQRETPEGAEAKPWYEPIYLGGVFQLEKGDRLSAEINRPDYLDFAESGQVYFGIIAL
`CN1C(=O)c2cccc(OC(F)F)c2[C@H]2C[C@@H]1c1nn3ccc(-c4cnc([C@]5(N)C[C@@](C)(O)C5)nc4)nc3c12` [Example 9, (7R,14S)-12-(2-((1s,3R)-1-amino-3-hydroxy-3-methylcyclobutyl)pyrimidin-5-yl)-1-(difluoromethoxy)-6-methyl-6,7-dihydro-7,14-methanobenzo[c]pyrimido[1′,2′:1,5]pyrazolo[4,3-f]azocin-5 (14H)-one]: the IC50 – broadly, the concentration at which inhibition is half-maximal – is < 25 nM.
On the same count and under the same terms, with `CN1C(=O)c2cccc(OC(F)F)c2[C@H]2C[C@@H]1c1nn3ccc(-c4ncc([C@H](O)[C@@H]5CCO5)cn4)cc3c12` [Example 131] the figure was < 25 nM.
`CN1C(=O)c2cccc(OC(F)F)c2[C@H]2C[C@@H]1c1nn3ccc(-c4cnc(C(O)(CF)CF)nc4)cc3c12` [Example 95]: the IC50 was < 25 nM.
On the same count and under the same terms, with `[2H]C([2H])([2H])N1C(=O)c2cccc(OC(F)F)c2[C@H]2C[C@@H]1c1nn3ccc(-c4cnc([C@]5(N)C[C@@](C)(O)C5)nc4)nc3c12` [Example 218] the figure was < 25 nM; with `[2H]C([2H])([2H])N1C(=O)c2cccc(OC(F)F)c2[C@H]2C[C@@H]1c1nn3ccc(-c4cnc([C@@H](N)C5CC5)nc4)nc3c12` [Example 276], 25 to 100 nM; with `[2H]C([2H])([2H])N1C(=O)c2cccc(OC(F)F)c2[C@H]2C[C@@H]1c1nn3ccc(-c4cnc([C@]5(N)C[C@@](C)(C#N)C5)nc4)cc3c12` [Example 55], < 25 nM.
For the compound `C[C@]1(C#N)C[C@](N)(c2ncc(-c3ccn4nc5c(c4c3)[C@@H]3C[C@H]5NC(=O)c4cccc(OC(F)F)c43)cn2)C1` [Example 195], the IC50 is < 25 nM.
For `Cc1cc(P(C)(C)=O)c(F)cc1-c1ccn2nc3c(c2c1)[C@@H]1C[C@H]3NC(=O)c2cccc(OC(F)F)c21` [Example 198], the concentration for half-maximal inhibition (IC50) was < 25 nM.
As to `[2H]C([2H])([2H])N1C(=O)c2cccc(OC(F)F)c2[C@H]2C[C@@H]1c1nn3ccc(-c4cnc([C@H](N)C5CC5)nc4)cc3c12` [Example 257], the 50% inhibitory concentration (IC50) was < 25 nM.
`[2H]C([2H])([2H])N1C(=O)c2cccc(C)c2[C@H]2C[C@@H]1c1nn3ccc(-c4cnc(C5(N)CCC5)nc4)cc3c12` [Example 302, (7R,14R)-12-(2-(1-aminocyclobutyl)pyrimidin-5-yl)-1-methyl-6-(methyl-d3)-6,7-dihydro-7,14-methanobenzo[c]pyrido[1′,2′:1,5]pyrazolo[4,3-f]azocin-5 (14H)-one]: the 50% inhibitory concentration (IC50) lay in the range of 25 to 100 nM.
Same read-out and setting: with `CN1C(=O)c2cccc(OC(F)F)c2[C@H]2C[C@@H]1c1nn3ccc(-c4cnc([C@]5(N)C[C@@H](O)C5)c(F)c4)cc3c12` [Example 168] the figure was < 25 nM; with `[2H]C([2H])([2H])N1C(=O)c2cccc(OC(F)F)c2[C@H]2C[C@@H]1c1nn3ccc(-c4cnc([C@]5(C#N)C[C@@](C)(N)C5)nc4)cc3c12` [Example 279], < 25 nM; with `CN1C(=O)c2cccc(OC(F)F)c2[C@H]2C[C@@H]1c1nn3ccc(-c4ccc(P(C)(C)=O)nn4)cc3c12` [Example 100], < 25 nM.
For `CN1C(=O)c2cccc(OC(F)F)c2[C@H]2C[C@@H]1c1nn3cnc(-c4cnc([C@]5(N)C[C@@](C)(O)C5)c(F)c4)cc3c12` [Example 47], the IC50 was < 25 nM.
For the compound `CN1C(=O)c2ccc(OC(F)F)nc2[C@H]2C[C@@H]1c1nn3ccc(-c4cnc([C@]5(O)C[C@@](C)(O)C5)nc4)cc3c12` [Example 321, 2-(difluoromethoxy)-12-(2-((1s, 3s)-1,3-dihydroxy-3-methylcyclobutyl)pyrimidin-5-yl)-6-methyl-6,7-dihydro-7,14-methanopyrido[3,2-c]pyrido[1′,2′:1,5]pyrazolo[4,3-f]azocin-5 (14H)-one], the IC50 is 25 to 100 nM.
Consider `NC1(c2ncc(-c3ccn4nc5c(c4c3)[C@@H]3C[C@H]5NC(=O)c4cccc(OC(F)F)c43)cn2)CCC1` [Example 184], for which the concentration for half-maximal inhibition (IC50) is < 25 nM.
The same measure, in the same setting: the result for `[2H]C([2H])([2H])N1C(=O)c2cccc(OC(F)F)c2[C@H]2C[C@@H]1c1nn3cc(F)c(-c4cnc([C@]5(N)C[C@@](C)(C#N)C5)nc4)nc3c12` [Example 213] reads < 25 nM.
For the compound `CN1C(=O)c2cccc(OC(F)F)c2[C@H]2C[C@@H]1c1nn3cnc(-c4cnc([C@]5(N)C[C@@](C)(O)C5)nc4)cc3c12` [Example 46], the IC50 is < 25 nM.
In the case of `[2H]C([2H])([2H])N1C(=O)c2cccc(OC(F)F)c2[C@H]2C[C@@H]1c1nn3ccc(-c4cnc(C5(O)COC5)nc4)cc3c12` [Example 153], the half-maximal inhibitory concentration (IC50) was < 25 nM.
Same read-out and setting: with `[2H]C([2H])([2H])N1C(=O)c2cccc(OC(F)F)c2[C@H]2C[C@@H]1c1nn3ccc(-c4cnc([C@]5(O)C[C@@](C)(C#N)C5)c(F)c4)nc3c12` [Example 249] the figure was < 25 nM.
As for `CN1C(=O)c2cccc(OC(F)F)c2[C@H]2C[C@@H]1c1nn3cc(F)c(-c4cnc([C@]5(N)C[C@@](C)(O)C5)nc4)nc3c12` [Example 27], the IC50 is < 25 nM.
In the case of `[2H]C([2H])([2H])N1C(=O)c2cccc(OC(F)F)c2[C@H]2C[C@@H]1c1nn3ccc(-c4cnc(C5(N)CCC5)nc4C)cc3c12` [Example 241], the IC50 was < 25 nM.
With `CN1C(=O)c2cccc(OC(F)F)c2[C@H]2C[C@@H]1c1nn3ccc(-c4cnc([C@H](O)CN5CCC5)nc4)cc3c12` [Example 172], the half-inhibitory concentration (IC50) is 100 to 1000 nM.
As to `CN1C(=O)c2cccc(OC(F)F)c2[C@H]2C[C@@H]1c1nn3cc(F)c(-c4cnc([C@](C)(O)CO)nc4)cc3c12` [Example 114], the IC50 was < 25 nM.
As to `[2H]C([2H])([2H])N1C(=O)c2cccc(OC(F)F)c2[C@H]2C[C@@H]1c1nn3cc(F)c(-c4cnc(C5(N)CC5)nc4)nc3c12` [Example 239], the half-inhibitory concentration (IC50) is < 25 nM.
In the case of `[2H]C([2H])([2H])N1C(=O)c2cccc(OC(F)F)c2[C@H]2C[C@@H]1c1nn3ccc(-c4cnc([C@]5(N)C[C@H](C#N)C5)nc4)nc3c12` [Example 179], the IC50 was < 25 nM.
On the same count and under the same terms, the result for `[2H]C([2H])([2H])N1C(=O)c2cccc(OC(F)F)c2[C@H]2C[C@@H]1c1nn3ccc(-c4cnc([C@]5(O)C[C@@](C)(N)C5)nc4)cc3c12` [Example 208] reads < 25 nM; that for `[2H]C([2H])([2H])N1C(=O)c2cccc(OC(F)F)c2[C@H]2C[C@@H]1c1nn3ccc(-c4cnc([C@]5(O)C[C@](C)(C#N)C5)nc4)nc3c12` [Example 272], < 25 nM.
Still for that read-out and setting: with `CN1C(=O)c2cccc(OC(F)F)c2[C@H]2C[C@@H]1c1nn3ccc(-c4ncc([C@]5(O)C[C@@](C)(O)C5)cn4)cc3c12` [Example 142] the figure was < 25 nM; with `CN1C(=O)c2cccc(OC(F)F)c2[C@H]2C[C@@H]1c1nn3ccc(C4=CCC(C(C)(C)O)CC4)nc3c12` (stereo partly drawn) [Example 8, (7R,14S)-1-(difluoromethoxy)-12-(4-(2-hydroxypropan-2-yl)cyclohex-1-en-1-yl)-6-methyl-6,7-dihydro-7,14-methanobenzo[c]pyrimido[1′,2′:1,5]pyrazolo[4,3-f]azocin-5 (14H)-one], 25 to 100 nM; with `CN1C(=O)c2cccc(OC(F)F)c2[C@H]2C[C@@H]1c1nn3cnc(-c4ccc(P(C)(C)=O)c(F)c4)cc3c12` [Example 144], < 25 nM.

Staying with this test, now noted: HEK-Blue hTNFα reporter cells; read-out: TNFα reporter, Emax.
Regarding `CN1C(=O)c2cccc(OC(F)F)c2[C@H]2C[C@@H]1c1nc3ccc(-c4cnc([C@]5(N)C[C@@](C)(C#N)C5)nc4)cc3n12` [Comp. Ex #5, reference compound], the Emax (usually the maximal effect, on the per cent scale that the assay sets) was 83%.
Take `CN1C(=O)c2cccc(OC(F)F)c2[C@H]2C[C@@H]1c1nn3cnc(-c4cnc([C@]5(N)C[C@@](C)(O)C5)c(F)c4)cc3c12` [Example 47]: the maximal response (Emax) worked out at 94%.

The same test, now with this note: HEK-Blue hTNFα reporter cells; read-out: TNFα reporter, IC50.
Turning to `CN1C(=O)c2cccc(OC(F)F)c2[C@H]2C[C@@H]1c1nc3ccc(-c4cnc([C@]5(N)C[C@@](C)(C#N)C5)nc4)cc3n12` [Comp. Ex #5, reference compound], the IC50 turned out to be 16.1 nM.
Take `CN1C(=O)c2cccc(OC(F)F)c2[C@H]2C[C@@H]1c1nn3cnc(-c4cnc([C@]5(N)C[C@@](C)(O)C5)c(F)c4)cc3c12` [Example 47]: the half-inhibitory concentration (IC50) was determined as 3.6 nM.

Source of the values: patent US12410179B2, “Modulators of TNF alpha activity and uses thereof” (RayThera, Inc., priority 2023, dated 2025).
